This is an account of results in ChEMBL document CHEMBL3727361, “Nitrogen bicyclic compounds as inhibitors for Scyl1 and Grk5” (2014).

The test system of this assay is Beta-TC6. Briefly: Increase in insulin release in mouse BetaTC6 cells assessed as relative insulin release activity at 10 uM incubated for 2 to 4 hrs by FRET based HTRF assay relative to sunitinib. Format: functional. (In general: TR-FRET usually uses a lanthanide donor and a delayed reading to cut background.)
As for `O=C(NC1CCCC1)c1ccc(-c2cn3c(-c4ccc(CO)cc4)cnc3cn2)cc1`, the Activity turned out to be 20%.

As for `FC(F)(F)Oc1cccc(-c2cnc3cnc(-c4cccnc4)cn23)c1`, the Activity stood at 20%.

In the case of `c1nc(-c2nnc3ccc(-c4ccc(N5CCOCC5)cc4)cn23)cs1`, the Activity stood at 50%.

Consider `NC(=O)c1ccc(-c2ccc3ncc(-c4cccc(OC(F)(F)F)c4)n3n2)cc1`, for which the Activity is 20%.

Turning to `Fc1cccc(-c2cn3c(-c4ccccc4)cnc3cn2)c1`, the Activity amounted to 20%.

Regarding `COc1ccc(-c2cn3c(-c4cccc(O)c4)cnc3cn2)cn1`, the Activity is listed as 20%.

For `CN(C)C(=O)c1ccc(-c2cnc3cnc(-c4ccc5c(ccn5C)c4)cn23)cc1`, the Activity is recorded as 20%.

Turning to `O=C(c1ccc(-c2ccc3nnc(-c4cccc(C(F)(F)F)c4)n3c2)cc1)N1CCOCC1`, the Activity was 20%.

With `COc1ccc(-c2ccc3nnc(-c4ccc(O)c(OC)c4)n3c2)cn1`, the Activity is 50%.

For the compound `CC(=O)Nc1ccc(-c2cnc3ccc(-c4ccc(S(C)(=O)=O)cc4)nn23)cc1`, the Activity was 10%.

Consider `CNc1ccc2ncc(-c3ccccc3O)n2n1`, for which the Activity came out at 20%.

With `COc1ccc(-c2ccc3ncc(-c4cccc(Cl)c4)n3n2)cc1OC`, the Activity amounted to 20%.

In the case of `COc1cc(-c2cnc3ccc(-c4cccc(OC(F)(F)F)c4)nn23)ccc1O`, the Activity worked out at 10%.

Consider `c1ccc(Oc2ccccc2-c2cn3c(-c4ccncc4)cnc3cn2)cc1`, for which the Activity was found to be 20%.

Consider `Cc1cc(-c2cn3c(-c4ccc5ncccc5c4)cnc3cn2)cc(C)c1O`, for which the Activity is reported as 20%.

With `CC(C)N1CCN(c2ccc(-c3cn4c(-c5ccc(O)cc5)cnc4cn3)cc2)CC1`, the Activity stood at 20%.

As for `CN1CCN(c2ccc(-c3cn4c(-c5cccc(O)c5)cnc4cn3)cc2)CC1`, the Activity was determined as 20%.

Regarding `Cc1cc(-c2cn3c(-c4ccncc4)cnc3cn2)cc(C)c1O`, the Activity worked out at 20%.

As for `CS(=O)(=O)Nc1cccc(-c2cnc3ccc(Cc4ccc(F)cc4)nn23)c1`, the Activity was 10%.

In the case of `CN1CCN(C(=O)c2cccc(-c3cnc4cnc(-c5ccc6c(c5)OCO6)cn34)c2)CC1`, the Activity is listed as 20%.

For the compound `CCCNc1ccc2ncc(-c3cccc(/C=C/C(=O)O)c3)n2n1`, the Activity is reported as 10%.

`COc1cc(-c2ccc3nnc(-c4ccoc4)n3c2)cc(OC)c1OC`: the Activity stood at 50%.

Turning to `Oc1cccc(-c2ccc3nnc(-c4ccccn4)n3c2)c1`, the Activity is recorded as 50%.

As for `Cc1ccccc1-c1nnc2ccc(-c3ccc(C(N)=O)cc3)cn12`, the Activity was 20%.

On to `OCC#Cc1ccc2nnc(-c3ccc4c(c3)OCO4)n2c1`, for which the Activity stood at 20%.

Take `Clc1ccc(-c2cnc3cnc(-c4ccncc4)cn23)cc1`: the Activity stood at 20%.

With `COc1ccc(-c2cnc3cnc(-c4ccc(CO)cc4)cn23)cc1`, the Activity is 50%.

As to `c1cncc(-c2cnc3ccc(-c4cccs4)nn23)c1`, the Activity was determined as 20%.

Turning to `Oc1ccc(-c2cnc3cnc(-c4ccc(Cl)cc4)cn23)cc1`, the Activity came out at 20%.

As to `CS(=O)(=O)Nc1cccc(-c2ccc3ncc(-c4ccncc4)n3n2)c1`, the Activity came to 20%.

As for `CCCNc1ccc2ncc(-c3ccc(C(=O)O)cc3)n2n1`, the Activity came out at 10%.

Turning to `Nc1ccc(-c2cnc3ccc(Cc4ccccc4)nn23)cn1`, the Activity was 20%.

Take `CCCC/C=C/c1cn2c(NC(=O)Cc3cccc(OC)c3)cnc2cn1`: the Activity is on record as 10%.

For the compound `CN1CCN(C(=O)c2cccc(-c3cnc4cnc(-c5cccc(Cl)c5)cn34)c2)CC1`, the Activity is 20%.

For the compound `CN(C)c1cccc(-c2ccc3nnc(-c4cscn4)n3c2)c1`, the Activity is reported as 50%.

On to `O=C(NC1CC1)c1ccc(-c2cn3c(-c4ccc(O)cc4)cnc3cn2)cc1`, for which the Activity worked out at 20%.

In the case of `CN(C)C(=O)c1ccc(-c2cnc3cnc(-c4ccsc4)cn23)cc1`, the Activity is listed as 20%.

Turning to `COc1ccc(-c2nnc3ccc(C#Cc4ccncc4)cn23)cc1OC`, the Activity is 50%.

Consider `N#Cc1ccc(-c2cnc3cnc(-c4ccsc4)cn23)cc1`, for which the Activity amounted to 20%.

On to `COc1cc(OC)cc(-c2cn3c(-c4cccc(O)c4)cnc3cn2)c1`, for which the Activity is recorded as 20%.

`COc1ccc(-c2cnc3ccc(NCCCO)nn23)cc1`: the Activity was found to be 10%.

`Fc1ccc(-c2ccc3ncc(-c4cccs4)n3n2)cc1Cl`: the Activity is reported as 20%.

Turning to `Fc1cccc(-c2cnc3cnc(-c4ccc(Cl)cc4)cn23)c1`, the Activity is 20%.

Take `Cc1ccc(CNc2ccc3ncc(-c4ccc(O)cc4)n3n2)c(C)c1`: the Activity was determined as 20%.

As to `Clc1cccc(-c2nnc3ccc(-c4cccnc4)cn23)c1`, the Activity is given as 50%.

For `CN1CCN(C(=O)c2cccc(-c3cnc4cnc(-c5ccc6c(ccn6C)c5)cn34)c2)CC1`, the Activity worked out at 20%.

On to `COc1ccc(-c2cnc3cnc(-c4cccs4)cn23)cc1`, for which the Activity was determined as 20%.

With `Fc1cccc(-c2cnc3cnc(-c4cccs4)cn23)c1`, the Activity is on record as 20%.

In the case of `CC(=O)c1cccc(-c2cnc3cnc(-c4cccc(F)c4)cn23)c1`, the Activity is on record as 20%.

Regarding `Cn1ccc2cc(-c3cnc4cnc(-c5cccc(C(=O)NCCO)c5)cn34)ccc21`, the Activity amounted to 20%.

As for `c1ccc(Cn2cc(-c3cn4c(-c5ccc6c(c5)OCO6)cnc4cn3)cn2)cc1`, the Activity worked out at 50%.

`OCc1ccc(-c2cnc3ccc(-c4cncnc4)nn23)cc1`: the Activity is on record as 10%.

Consider `Oc1cccc(-c2nnc3ccc(-c4cccc5ncccc45)cn23)c1`, for which the Activity turned out to be 20%.

As for `Oc1cccc(-c2cnc3cnc(-c4ccc(Cl)cc4)cn23)c1`, the Activity was determined as 20%.

Take `Cc1ccccc1-c1nnc2ccc(-c3cccc(C(=O)NCCO)c3)cn12`: the Activity was 10%.

On to `COc1cc(-c2cnc3cnc(-c4ccc(NCCN5CCOCC5)nc4)cn23)ccc1O`, for which the Activity worked out at 20%.

For the compound `COc1ccc(-c2cnc3ccc(NCc4cccs4)nn23)c(OC)c1`, the Activity came to 20%.

As to `COc1cc(OC)cc(-c2cnc3cnc(-c4cccc(OC(C)C)c4)cn23)c1`, the Activity was 20%.

For the compound `O=C(NCCO)c1cccc(-c2cn3c(-c4cccs4)cnc3cn2)c1`, the Activity turned out to be 20%.

As for `Clc1cccc(-c2cn3c(-c4cccs4)cnc3cn2)c1`, the Activity amounted to 20%.

Take `COc1cc(-c2cnc3cnc(-c4cnn(C)c4)cn23)ccc1O`: the Activity is reported as 50%.

Consider `CN(C)c1ccc(-c2ccc3nnc(-c4cccnc4)n3c2)cc1`, for which the Activity came to 50%.

`COc1cc(-c2ccc3nnc(-c4cccc(C(F)(F)F)c4)n3c2)cc(OC)c1OC`: the Activity is listed as 50%.

As to `CS(=O)(=O)Nc1cccc(-c2cn3c(-c4ccc(Oc5ccccc5)cc4)cnc3cn2)c1`, the Activity worked out at 20%.

Take `CS(=O)(=O)c1cccc(-c2ccc3nnc(-c4cccc(OC(F)(F)F)c4)n3c2)c1`: the Activity amounted to 50%.

As for `COc1cc(OC)cc(-c2cnc3cnc(-c4ccccc4N(C)C)cn23)c1`, the Activity was found to be 20%.

As for `COc1cc(-c2cnc3cnc(-c4ccc(N5CCN(C)CC5)nc4)cn23)cc(OC)c1OC`, the Activity came to 20%.

Turning to `Clc1ccccc1-c1ccc2ncc(-c3cccs3)n2n1`, the Activity is 10%.
